{
  "source": "paper PMC6079014",
  "about": "“Calcium is an essential cofactor for metal efflux by the ferroportin transporter family” (Nature Communications, 2018)",
  "target": "T1, human Fpn (Homo sapiens, UniProt Q9NP59)",
  "T1 construct": "expressed in transfected cells; host or cells: Xenopus laevis oocytes injected with Fpn RNA",
  "T1 sequence (Q9NP59 1-571)": "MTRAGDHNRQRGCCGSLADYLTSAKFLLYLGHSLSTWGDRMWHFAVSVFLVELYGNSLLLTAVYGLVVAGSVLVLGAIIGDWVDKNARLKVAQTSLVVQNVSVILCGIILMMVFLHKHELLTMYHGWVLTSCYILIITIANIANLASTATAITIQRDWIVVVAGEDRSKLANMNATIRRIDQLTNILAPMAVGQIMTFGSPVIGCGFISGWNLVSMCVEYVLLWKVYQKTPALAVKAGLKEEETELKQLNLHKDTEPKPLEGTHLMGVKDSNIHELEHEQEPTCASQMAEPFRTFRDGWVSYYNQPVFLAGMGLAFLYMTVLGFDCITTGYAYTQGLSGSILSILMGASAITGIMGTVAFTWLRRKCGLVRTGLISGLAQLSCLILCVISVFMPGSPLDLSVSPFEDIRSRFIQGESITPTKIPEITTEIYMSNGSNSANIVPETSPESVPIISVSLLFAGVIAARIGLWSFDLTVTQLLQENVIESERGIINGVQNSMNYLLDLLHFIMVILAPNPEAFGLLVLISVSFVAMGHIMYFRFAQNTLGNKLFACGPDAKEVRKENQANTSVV",
  "test": "Radiotracer metal efflux assay in Xenopus oocytes expressing human Fpn",
  "type": "cell-based",
  "protocol": "We performed laparotomy and ovariectomy on adult female Xenopus laevis frogs (Nasco, Fort Atkinson, WI) under 2-aminoethylbenzoate methanesulfonate anesthesia (0.2%, by immersion, to effect) following a protocol approved by the University of Cincinnati Institutional Animal Care and Use Committee. Ovarian tissue was isolated and treated for 3 h with […] collagenase A (Roche Diagnostics Corp., Indianapolis, IN) in calcium-free-modified Barths’ medium (MBM) of composition 88 mM NaCl, 1 mM KCl, 2.4 mM NaHCO3, 1.57 mM MgSO4, 0.66 mM NaNO3, 10 mM 4-(2-hydroxyethyl)-1-piperazineethanesulfonic acid (HEPES), buffered to pH 7.5 by using 2-amino-2-hydroxymethyl-propane-1,3-diol (Tris base). We isolated defolliculate stage V–VI oocytes stored at 17 °C in MBM of composition 88 mM NaCl, 1 mM KCl, 2.4 mM NaHCO3, 0.82 MgSO4, 0.75 mM CaCl2, 0.66 mM NaNO3, 10 mM HEPES, buffered to pH 7.5 by using Tris base, with 50 mg l^−1 ciprofloxacin. We expressed in Xenopus oocytes the 1A transcript form of human Fpn fused at its C-terminus with the enhanced green fluorescent protein (GFP) as described. Oocytes were injected with ∼50 ng of Fpn RNA and incubated for 4–6 days before being used in functional assays. Control oocytes were noninjected.\nWe measured metal efflux from oocytes expressing Fpn by using a radiotracer assay. Radiochemicals ^55Fe, ^45Ca, ^57Co, ^65Zn were obtained from Perkin-Elmer Life Science Products (Boston, MA) and ^63Ni from the National Isotope Development Center (Oak Ridge, TN). We used ^55Fe (added as FeCl3) at final specific activity 0.4–2.0 GBq mg^−1, ^45Ca (added as CaCl2) at final specific activity 0.5–0.9 GBq mg^−1, ^57Co (added as CoCl2) at final specific activity 1.6 GBq mg^−1, ^65Zn (added as ZnCl2) at final specific activity 0.2 GBq mg^−1, and ^63Ni (added as NiCl2) at final specific activity 0.6 GBq mg^−1. Oocytes were injected with 50 nl of 5 μM metal radionuclide (*M) in vehicle of composition 250 mM KCl, 5 mM nitrilotriacetic acid, trisodium salt, buffered to pH 7.0 with ∼4 mM 2-(N-morpholino)ethanesulfonic acid (MES) (GFS Chemicals, Columbus, OH). After injection, oocytes were briefly stored in ice-cold MBM (for 1–5 min) prior to the start of the efflux assay.\nTo initiate the efflux assay, we placed oocytes in standard efflux medium of composition 100 mM NaCl, 1 mM KCl, 2 mM CaCl2, 1 mM MgCl2, 0.5 mM bathophenanthroline disulfonic acid (BPS), 1 mM nitrilotriacetic acid (NTA) trisodium salt, 50 μg/ml apotransferrin (ApoTf) (R&D Systems Inc., Minneapolis, MN), buffered with 0–5 mM MES, and 0–5 mM N′,N′-diethylpiperazine to obtain pH 7.5, with the following exceptions. To prepare Ca^2+-free medium, we replaced 2 mM CaCl2 with 4 mM NaCl and added 1 mM ethylene glycol-bis(2-aminoethyl ether)-N,N,N′,N′-tetraacetic acid (EGTA). To prepare Mg^2+-free medium, we replaced […] MgCl2 with 4 mM NaCl and added 1 mM ethylenediaminetetraacetic acid (EDTA). To measure ^55Fe efflux as a function of extracellular [Ca^2+] over the range 0.1–20 mM Ca^2+ (Figs. 1c, 6b), we adjusted [NaCl] and [CaCl2] on a 2:1 molar basis without the addition of EGTA. Oocytes were then transferred individually in 200 µl of medium to flat-bottomed wells of a 96-well plate and incubated 30 min—within the linear phase of metal efflux[10] —at 23–27 °C with gentle rocking. To terminate efflux, we removed 150 µl of medium (0.75 × [N0–Nt]) from each well for liquid-scintillation counting in Ultima Gold liquid-scintillation cocktail (Perkin-Elmer, Waltham, MA). The corresponding oocytes were rinsed twice in ice-cold medium (without BPS), solubilized with 5% (w/v) sodium dodecyl sulfate, and counted (Nt). We fit our data for oocyte radiotracer content (N) over time (Eq. (1)) and obtained the first-order rate constant (k) for metal radionuclide (*M) efflux for individual oocytes. N0 and Nt are counts per min (cpm) in the oocyte at time = 0 and time = t, respectively.1 Nt=N0⋅exp(-k⋅t) […]",
  "key": {"[1]": {"conditions": "2 mM extracellular Ca2+ vs 0 mM Ca2+ plus 1 mM EGTA"}},
  "note": "Where “and” joins values, the source holds several entries; their conditions need not be identical. Equal values may be shown once.",
  "data": [
    {"smiles": "[Ca+2]", "note": "[Ca^2+, calcium]", "values": [
      {"measurement": "EC50", "result": "900 µM and 800 to 900 µM and 800 µM"},
      {"measurement": "Dependence of Fpn-mediated 55Fe efflux on extracellular Ca2+", "setting": "[1]", "result": "dependent"},
      {"measurement": "Effect of extracellular Ca2+ on Fpn-mediated 57Co efflux", "setting": "[1]", "result": "activated"},
      {"measurement": "Effect of extracellular Ca2+ on Fpn-mediated 63Ni efflux", "setting": "[1]", "result": "activated"},
      {"measurement": "45Ca efflux from oocytes expressing Fpn vs control", "setting": "oocytes injected with 45Ca", "result": "did not stimulate"}
    ]}
  ]
}
